Measured values from patent US10421761B2, “Compounds for kinase modulation, and indications therefor” (Plexxikon Inc., priority 2013, dated 2019).

Tested on: B9 cells
Conditions: B9 cells

CCCS(=O)(=O)Nc1ccc(F)c(C(=O)c2c[nH]c3ncc(-c4ccc(Cl)cc4)cc23)c1F [vemurafenib]
probe 1455104_at response, Mxd1 (MAX dimerization protein 1) (Repl. 1): 2.60 | probe 1455241_at response, BC037703 (cDNA sequence BC037703) (Repl. 1): 0.44 | probe 1455299_at response, Vgll3 (vestigial like 3 (Drosophila)) (Repl. 1): 0.50 | probe 1455981_at response, Gm11263 /// Gm12242 /// Gm13654 /// Gm14138 /// Gm16406 /// Gm4796 /// Gm6476 /// Gm9143 /// LOC100043734 /// LOC236932 /// LOC623245 /// LOC639593 /// Rps6 (Repl. 1): 0.41 | probe 1456150_at response, Jhdm1d (jumonji C domain-containing histone demethylase 1 homolog D (S. cerevisiae)) (Repl. 1): 1.99 | probe 1456174_x_at response, Ndrg1 (N-myc downstream regulated gene 1) (Repl. 1): 1.92 | probe 1456248_at response, Lce3f /// LOC630971 (late cornified envelope 3F /// hypothetical protein LOC630971) (Repl. 1): 2.26 | probe 1456284_at response, Tmem171 (transmembrane protein 171) (Repl. 1): 2.10 | probe 1456321_at response, Nipal1 (NIPA-like domain containing 1) (Repl. 1): 3.42 | probe 1456725_x_at response, Ezr (ezrin) (Repl. 1): 0.48 | probe 1456874_at response, Flrt2 (fibronectin leucine rich transmembrane protein 2) (Repl. 1): 0.52 | probe 1457042_at response, AI256396 (EST AI256396) (Repl. 1): 0.48 | probe 1457568_at response, Hnrnpd (heterogeneous nuclear ribonucleoprotein D) (Repl. 1): 0.44 | probe 1457666_s_at response, Ifi202b (interferon activated gene 202B) (Repl. 1): 3.60 | probe 1460220_a_at response, Csf1 (colony stimulating factor 1 (macrophage)) (Repl. 1): 0.40 | probe 1460302_at response, Thbs1 (thrombospondin 1) (Repl. 1): 0.49 | probe 1460472_at response, Cdk3 (cyclin-dependent kinase 3) (Repl. 1): 1.91 | probe 1460521_a_at response, Obfc2a (oligonucleotide/oligosaccharide-binding fold containing 2A) (Repl. 1): 3.03 | probe 1460695_a_at response, 2010111I01Rik (RIKEN cDNA 2010111I01 gene) (Repl. 1): 0.51 | probe 1415828_a_at response, Serp1 (stress-associated endoplasmic reticulum protein 1) (Repl. 2): 1.88 | probe 1415936_at response, Bcar3 (breast cancer anti-estrogen resistance 3) (Repl. 2): 2.16 | probe 1416129_at response, Errfi1 (ERBB receptor feedback inhibitor 1) (Repl. 2): 3.11 | probe 1416246_a_at response, Coro1a (coronin, actin binding protein 1A) (Repl. 2): 2.19 | probe 1416325_at response, Crisp 1 (cysteine-rich secretory protein 1) (Repl. 2): 4.39 | probe 1416401_at response, Cd82 (CD82 antigen) (Repl. 2): 2.64 | probe 1416488_at response, Ccng2 (cyclin G2) (Repl. 2): 2.31 | probe 1416527_at response, Rab32 (RAB32, member RAS oncogene family) (Repl. 2): 0.48 | probe 1417065_at response, Egr1 (early growth response 1) (Repl. 2): 4.50 | probe 1417130_s_at response, Angptl4 (angiopoietin-like 4) (Repl. 2): 2.79 | probe 1417328_at response, Ercc1 (excision repair cross-complementing rodent repair deficiency, complementation group 1) (Repl. 2): 2.01 | probe 1417488_at response, Fosl1 (fos-like antigen 1) (Repl. 2): 2.05 | probe 1417494_a_at response, Cp (ceruloplasmin) (Repl. 2): 0.43 | probe 1417495_x_at response, Cp (ceruloplasmin) (Repl. 2): 0.51 | probe 1417533_a_at response, Itgb5 (integrin beta 5) (Repl. 2): 0.51 | probe 1417625_s_at response, Cxcr7 (chemokine (C-X-C motif) receptor 7) (Repl. 2): 2.03 | probe 1417677_at response, Opn3 (opsin 3) (Repl. 2): 2.39 | probe 1417812_a_at response, Lamb3 (laminin, beta 3) (Repl. 2): 2.38 | probe 1417837_at response, Phlda2 (pleckstrin homology-like domain, family A, member 2) (Repl. 2): 2.11 | probe 1417902_at response, Slc19a2 (solute carrier family 19 (thiamine transporter), member 2) (Repl. 2): 2.07 | probe 1417962_s_at response, Ghr (growth hormone receptor) (Repl. 2): 2.14 | probe 1418349_at response, Hbegf (heparin-binding EGF-like growth factor) (Repl. 2): 2.70 | probe 1418350_at response, Hbegf (heparin-binding EGF-like growth factor) (Repl. 2): 2.46 | probe 1418538_at response, Kdelr3 (KDEL (Lys-Asp-Glu-Leu) endoplasmic reticulum protein retention receptor 3) (Repl. 2): 2.02 | probe 1418539_a_at response, Ptpre (protein tyrosine phosphatase, receptor type, E) (Repl. 2): 1.89 | probe 1419149_at response, Serpine1 (serine (or cysteine) peptidase inhibitor, clade E, member 1) (Repl. 2): 1.99 | probe 1419188_s_at response, Ccl27a /// Gm13306 (chemokine (C-C motif) ligand 27A /// predicted gene 13306) (Repl. 2): 2.36 | probe 1419317_x_at response, Lce3c (late cornified envelope 3C) (Repl. 2): 2.58 | probe 1419322_at response, Fgd6 (FYVE, RhoGEF and PH domain containing 6) (Repl. 2): 2.45 | probe 1419529_at response, Il23a (interleukin 23, alpha subunit p19) (Repl. 2): 2.53 | probe 1419671_a_at response, Il17rc (interleukin 17 receptor C) (Repl. 2): 0.45 | probe 1419722_at response, Klk8 (kallikrein related-peptidase 8) (Repl. 2): 1.94 | probe 1419816_s_at response, Errfi1 (ERBB receptor feedback inhibitor 1) (Repl. 2): 3.39 | probe 1420352_at response, Prss22 (protease, serine, 22) (Repl. 2): 3.13 | probe 1420380_at response, Cc12 (chemokine (C-C motif) ligand 2) (Repl. 2): 0.41 | probe 1420407_at response, Ltb4r1 (leukotriene B4 receptor 1) (Repl. 2): 2.24 | probe 1420450_at response, Mmp10 (matrix metallopeptidase 10) (Repl. 2): 3.93 | probe 1420537_at response, Kctd4 (potassium channel tetramerisation domain containing 4) (Repl. 2): 2.58 | probe 1420760_s_at response, Ndrg1 (N-myc downstream regulated gene 1) (Repl. 2): 2.04 | probe 1420913_at response, Slco2a1 (solute carrier organic anion transporter family, member 2a1) (Repl. 2): 1.96 | probe 1420955_at response, Vsnl1 (visinin-like 1) (Repl. 2): 0.47 | probe 1421134_at response, Areg (amphiregulin) (Repl. 2): 4.16 | probe 1421269_at response, Ugcg (UDP-glucose ceramide glucosyltransferase) (Repl. 2): 2.16 | probe 1421279_at response, Lamc2 (laminin, gamma 2) (Repl. 2): 2.11 | probe 1421403_at response, Pi15 (peptidase inhibitor 15) (Repl. 2): 1.96 | probe 1421551_s_at response, Ifi202b (interferon activated gene 202B) (Repl. 2): 3.42 | probe 1421668_x_at response, Speer3 (spermatogenesis associated glutamate (E)-rich protein 3) (Repl. 2): 2.60 | probe 1421679_a_at response, Cdkn1a (cyclin-dependent kinase inhibitor 1A (P21)) (Repl. 2): 4.13 | probe 1421888_x_at response, Aplp2 (amyloid beta (A4) precursor-like protein 2) (Repl. 2): 0.63 | probe 1421943_at response, Tgfa (transforming growth factor alpha) (Repl. 2): 1.92 | probe 1422028_a_at response, Ets1 (E26 avian leukemia oncogene 1, 5′ domain) (Repl. 2): 1.91 | probe 1422101_at response, Tnfrsf23 (tumor necrosis factor receptor superfamily, member 23) (Repl. 2): 1.93 | probe 1422138_at response, Plau (plasminogen activator, urokinase) (Repl. 2): 2.19 | probe 1422139_at response, Plau (plasminogen activator, urokinase) (Repl. 2): 2.82 | probe 1422222_at response, Ivl (involucrin) (Repl. 2): 2.27 | probe 1422240_s_at response, Sprr2h (small proline-rich protein 2H) (Repl. 2): 1.98 | probe 1422273_at response, Mmp1b (matrix metallopeptidase 1b (interstitial collagenase)) (Repl. 2): 3.17 | probe 1422324_a_at response, Pthlh (parathyroid hormone-like peptide) (Repl. 2): 2.28 | probe 1422537_a_at response, Id2 (inhibitor of DNA binding 2) (Repl. 2): 0.49 | probe 1422771_at response, Smad6 (MAD homolog 6 (Drosophila)) (Repl. 2): 0.47 | probe 1422924_at response, Tnfsf9 (tumor necrosis factor (ligand) superfamily, member 9) (Repl. 2): 1.94 | probe 1423017_a_at response, Il1rn (interleukin 1 receptor antagonist) (Repl. 2): 2.03 | probe 1423543_at response, Swap70 (SWA-70 protein) (Repl. 2): 1.95 | probe 1423597_at response, Atp8a1 (ATPase, aminophospholipid transporter (APLT), class I, type 8A, member 1) (Repl. 2): 1.88 | probe 1423635_at response, Bmp2 (bone morphogenetic protein 2) (Repl. 2): 2.23 | probe 1423690_s_at response, Gpsm1 (G-protein signalling modulator 1 (AGS3-like, C. elegans)) (Repl. 2): 3.20 | probe 1423933_a_at response, 1600029D21Rik (RIKEN cDNA 1600029D21 gene) (Repl. 2): 2.01 | probe 1424022_at response, Osgin1 (oxidative stress induced growth inhibitor 1) (Repl. 2): 1.92 | probe 1424090_at response, Sdcbp2 (syndecan binding protein (syntenin) 2) (Repl. 2): 4.46 | probe 1424306_at response, Elovl4 (elongation of very long chain fatty acids (FEN1/Elo2, SUR4/Elo3, yeast)-like 4) (Repl. 2): 2.35 | probe 1424383_at response, Tmem51 (transmembrane protein 51) (Repl. 2): 2.69 | probe 1424471_at response, Rapgef3 (Rap guanine nucleotide exchange factor (GEF) 3) (Repl. 2): 1.89 | probe 1424638_at response, Cdkn1a (cyclin-dependent kinase inhibitor 1A (P21)) (Repl. 2): 2.67 | probe 1424783_a_at response, Ugt1a1 /// Ugt1a10 /// Ugt1a2 /// Ugt1a5 /// Ugt1a6a /// Ugt1a6b /// Ugt1aTc /// Ugt1a9 (UDP glucuronosyltransferase 1 family) (Repl. 2): 0.43 | probe 1425452_s_at response, Fam84a (family with sequence similarity 84, member A) (Repl. 2): 2.53 | probe 1425660_at response, Btbd3 (BTB (POZ) domain containing 3) (Repl. 2): 1.92 | probe 1426037_a_at response, Rgs16 (regulator of G-protein signaling 16) (Repl. 2): 2.93 | probe 1426181_a_at response, I124 (interleukin 24) (Repl. 2): 4.76 | probe 1426260_a_at response, Ugt1a1 /// Ugt1a10 /// Ugt1a2 /// Ugt1a5 /// Ugt1a6a /// Ugt1a6b /// Ugt1aTc /// Ugt1a9 (UDP glucuronosyltransferase 1 family) (Repl. 2): 0.45 | probe 1426300_at response, Alcam (activated leukocyte cell adhesion molecule) (Repl. 2): 2.44 | probe 1426306_a_at response, LOC100046560 /// Maged2 (similar to melanoma antigen family D, 2 /// melanoma antigen, family D, 2) (Repl. 2): 1.87 | probe 1426708_at response, Antxr2 (anthrax toxin receptor 2) (Repl. 2): 2.15 | probe 1426806_at response, Obfc2a (oligonucleotide/oligosaccharide-binding fold containing 2A) (Repl. 2): 2.02 | probe 1426848_at response, LOC100047481 /// Sec24b (similar to SEC24 related gene family, member B (S. cerevisiae) /// Sec24 related gene family, member B (S. cerevisiae)) (Repl. 2): 0.75 | probe 1426972_at response, Sec24d (Sec24 related gene family, member D (S. cerevisiae)) (Repl. 2): 2.26 | probe 1427278_at response, Clip4 (CAP-GLY domain containing linker protein family, member 4) (Repl. 2): 2.03 | probe 1427364_a_at response, Odc1 (ornithine decarboxylase, structural 1) (Repl. 2): 2.62 | probe 1427512_a_at response, Lama3 (laminin, alpha 3) (Repl. 2): 2.47 | probe 1427527_a_at response, Pthlh (parathyroid hormone-like peptide) (Repl. 2): 2.37 | probe 1427885_at response, Pold4 (polymerase (DNA-directed), delta 4) (Repl. 2): 2.27 | probe 1428114_at response, Slc14a1 (solute carrier family 14 (urea transporter), member 1) (Repl. 2): 2.47 | probe 1428195_at response, Ahcyl2 (S-adenosylhomocysteine hydrolase-like 2) (Repl. 2): 2.06 | probe 1428228_at response, Pgm3 (phosphoglucomutase 3) (Repl. 2): 2.13 | probe 1428419_at response, 5430411K18Rik (RIKEN cDNA 5430411K18 gene) (Repl. 2): 2.28 | probe 1428851_at response, 1300014I06Rik (RIKEN cDNA 1300014I06 gene) (Repl. 2): 2.01 | probe 1429700_at response, 3110040M04Rik (RIKEN cDNA 3110040M04 gene) (Repl. 2): 2.47 | probe 1429844_at response, 2310043J07Rik (RIKEN cDNA 2310043J07 gene) (Repl. 2): 0.53 | probe 1430010_at response, Ncapd2 (non-SMC condensin I complex, subunit D2) (Repl. 2): 0.49 | probe 1430567_at response, Spink5 (serine peptidase inhibitor, Kazal type 5) (Repl. 2): 0.53
